Measurements: patent US20030133920A1, “Koji molds for preparing cholesterol lowering products” (priority 2000, published 2003)

Legend:
[1] = system: cholesterol synthesis in human hepatic T9A4 cells; assay: Inhibition test for cholesterol synthesis, 14C-acetate incorporation into cholesterol; format: cell-based; conditions: 1 mM 14C-acetate, 20 h, liquid fermentation extracts, extract concentration in the medium per row (37-70 μg/ml; lovastatin 0.5 μg/ml)
Protocol: (§1) The human hepatic T9A4 cells were grown in the serum-free LCM medium (Biofluids, Rockville, Md., USA) under 3.5% CO2 at 37° C. The cells were seeded into 24 well plates and incubated at confluency with 1 mM ^14C-acetate (1 mCi/mmol, Amersham) for 20 h in the absence (control) or in the presence of the fermented extract fractions. Cells were also incubated with 1.17 mM ^14C-mevalonate (0.85 mCi/mmol, Amersham) for 20 h in order to evaluate whether the compounds stemming from the microorganisms to be tested have an inhibitory effect downstream the HMGCoA/Mevalonate conversion step.
(§2) Lipid extraction was performed twice by incubation with hexane:isopropanol (3:2) for 30 min at room temperature. The combined extracts were dried under N2, redissolved in hexane and subjected to high performance thin layer chromatography (Merck, Darmstadt, Germany) in a solvent mixture of hexane:diethyl ether:acetic acid (75:25:1). The neo-synthesis of cholesterol was determined by measuring the ^14C-acetate incorporation into the cholesterol with an instant imager (Camberra Packard, Zurich, Switzerland) and expressed as percent of the control.

[2] = system: cholesterol synthesis in human hepatic T9A4 cells; assay: Inhibition test for cholesterol synthesis in presence of 14C-mevalonate (downstream of HMGCoA/mevalonate step); format: cell-based
Protocol: as §1, §2

## CC[C@H](C)C(=O)O[C@H]1C[C@@H](C)C=C2C=C[C@H](C)[C@H](CC[C@@H]3C[C@@H](O)CC(=O)O3)[C@H]21 [LOVASTATIN, lovastatin]
[1]
  inhibition at 0.5 µg/mL: 56%
[2]; T9A4 cells, in presence of 14C-mevalonate
  inhibitory effect on cholesterol biosynthesis (in words): does not inhibit cholesterol biosynthesis
[2]; human hepatic T9A4 cells, 1.17 mM 14C-mevalonate, 20 h, extract concentration in the medium per row (37-50 μg/ml; lovastatin 0.5 μg/ml)
  inhibition at 0.5 µg/mL: 0%
